Measurements: the NIST ThermoML archive (doi:10.1016/j.jct.2016.07.041)
± gives the expanded uncertainty stated by the source.

Key:
[1] = 101.33 kPa, Liquid; for viscosity: Capillary tube (Ostwald / Ubbelohde) method; for mass density: Vibrating tube method
[2] = xn = mol fraction of the nth substance listed; settings: 101 kPa, Liquid, x1 = 1; for viscosity: Capillary tube (Ostwald / Ubbelohde) method; for mass density: Vibrating tube method

Row | viscosity ([1]; 293.15 K) | mass density ([1]; 293.15 K) | viscosity ([1]; 303.15 K) | mass density ([1]; 303.15 K) | viscosity ([1]; 313.15 K) | mass density ([1]; 313.15 K) | viscosity ([1]; 323.15 K) | mass density ([1]; 323.15 K) | viscosity ([1]; 333.15 K) | mass density ([1]; 333.15 K) | viscosity ([2]; 293.15 K) | mass density ([2]; 293.15 K) | viscosity ([2]; 303.15 K) | mass density ([2]; 303.15 K) | viscosity ([2]; 313.15 K) | mass density ([2]; 313.15 K) | viscosity ([2]; 323.15 K) | mass density ([2]; 323.15 K) | viscosity ([2]; 333.15 K) | mass density ([2]; 333.15 K) | SMILES
1 | 139.12 ± 8.7 mPa·s | 1205.1 ± 1.2 kg/m3 | 82.49 ± 5 mPa·s | 1198 ± 1.2 kg/m3 | 52.33 ± 3.1 mPa·s | 1190.8 ± 1.2 kg/m3 | 35.16 ± 2.1 mPa·s | 1183.7 ± 1.2 kg/m3 | 24.69 ± 1.5 mPa·s | 1176.8 ± 1.2 kg/m3 | – | – | – | – | – | – | – | – | – | – | CCCCn1cc[n+](C)c1.F[B-](F)(F)F [1-butyl-3-methylimidazolium tetrafluoroborate]
2 | – | – | – | – | – | – | – | – | – | – | 139.12 ± 8.7 mPa·s | 1205.1 ± 1.2 kg/m3 | 82.49 ± 5 mPa·s | 1198 ± 1.2 kg/m3 | 52.33 ± 3.1 mPa·s | 1190.8 ± 1.2 kg/m3 | 35.16 ± 2.1 mPa·s | 1183.7 ± 1.2 kg/m3 | 24.69 ± 1.5 mPa·s | 1176.8 ± 1.2 kg/m3 | CCCCn1cc[n+](C)c1.F[B-](F)(F)F [1-butyl-3-methylimidazolium tetrafluoroborate] + NCCO
3 | 23.65 ± 1.4 mPa·s | 1015.5 ± 1 kg/m3 | 14.75 ± 0.89 mPa·s | 1007.6 ± 1 kg/m3 | 9.78 ± 0.59 mPa·s | 999.7 ± 1 kg/m3 | 6.81 ± 0.41 mPa·s | 991.7 ± 1 kg/m3 | 4.99 ± 0.3 mPa·s | 983.6 ± 1 kg/m3 | – | – | – | – | – | – | – | – | – | – | NCCO [2-aminoethan-1-ol]
